# Data from publication PMC3894633 (Biochemistry, 2013).
# Read-outs that look alike come from different tables or passages of the source.
# Tests used:
# mycobacterial Lpd (mLpd) = molecular target: T1, mycobacterial Lpd (mLpd) (Mycobacterium tuberculosis, UniProt P9WHH9); type: biochemical
# T1 sequence (P9WHH9 1-464): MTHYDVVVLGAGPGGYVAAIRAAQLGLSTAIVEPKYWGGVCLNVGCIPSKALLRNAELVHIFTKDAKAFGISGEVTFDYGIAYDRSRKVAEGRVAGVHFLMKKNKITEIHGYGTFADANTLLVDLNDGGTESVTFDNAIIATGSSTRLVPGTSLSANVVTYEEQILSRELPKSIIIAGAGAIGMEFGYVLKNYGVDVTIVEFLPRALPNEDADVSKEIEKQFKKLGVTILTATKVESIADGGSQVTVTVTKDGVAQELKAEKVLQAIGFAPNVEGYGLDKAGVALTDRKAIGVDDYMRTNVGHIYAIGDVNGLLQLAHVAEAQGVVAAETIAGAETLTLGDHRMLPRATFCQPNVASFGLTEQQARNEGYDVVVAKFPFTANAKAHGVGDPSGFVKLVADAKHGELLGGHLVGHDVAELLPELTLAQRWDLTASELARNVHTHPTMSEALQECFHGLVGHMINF
# M. bovis BCG = type: cell-based
# [1] = system: M. tuberculosis ΔpanCDΔlysA; type: cell-based; conditions: for Growth inhibition of M. tuberculosis ΔpanCDΔlysA: 7 days in culture, tested up to 100 μM, inhibition only at 100 μM
# human Lpd (hLpd) = molecular target: T2, human Lpd (hLpd) (Homo sapiens, UniProt P09622); test: Human Lpd inhibition, DTNB assay with 10 μM lipoamide; type: biochemical; conditions: highest concentration tested 100 μM
# T2 sequence (P09622 36-509): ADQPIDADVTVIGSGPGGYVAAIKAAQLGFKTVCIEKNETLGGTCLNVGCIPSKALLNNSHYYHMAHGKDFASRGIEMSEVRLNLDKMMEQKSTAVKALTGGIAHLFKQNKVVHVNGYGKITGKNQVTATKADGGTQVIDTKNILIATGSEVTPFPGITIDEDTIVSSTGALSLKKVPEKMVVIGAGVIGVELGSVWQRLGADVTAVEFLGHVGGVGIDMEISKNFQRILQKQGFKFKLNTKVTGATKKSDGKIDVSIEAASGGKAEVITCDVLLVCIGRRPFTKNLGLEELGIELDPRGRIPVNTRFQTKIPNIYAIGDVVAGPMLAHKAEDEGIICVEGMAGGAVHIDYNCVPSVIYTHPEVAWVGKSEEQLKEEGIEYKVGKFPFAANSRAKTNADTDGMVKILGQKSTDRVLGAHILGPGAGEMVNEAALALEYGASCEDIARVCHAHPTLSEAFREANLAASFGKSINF
# M. tuberculosis H37Rv = test: Metabolic profiling of Mtb intracellular metabolites; type: cell-based, Mycobacterium tuberculosis; conditions: Mtb exposed to 75 μM
# Mtb = conditions: ref [20]; cited from earlier work
smiles,measurement,setting,value
CCN(Cc1ccccc1)C(=O)CN(C)S(=O)(=O)c1cc(Br)cnc1N [E114-0951],Loss of potency,mycobacterial Lpd (mLpd),100 fold
CN(Cc1ccccc1)C(=O)CN(C)S(=O)(=O)c1cc(Br)cnc1N [E144-0828],Loss of potency,mycobacterial Lpd (mLpd),100 fold
Nc1ncc(Br)cc1S(=O)(=O)NCCC(=O)Nc1cccc(Cl)c1 [K906-3123],Loss of potency,mycobacterial Lpd (mLpd),even greater loss of potency
CN(CC(=O)Nc1ccc(F)c(Cl)c1)S(=O)(=O)c1cc(Br)cnc1N [SL418],Growth inhibition of M. bovis BCG,"M. bovis BCG; 7 days in culture, tested up to 100 μM, inhibition only at 100 μM",No growth inhibition
same,Growth inhibition of M. tuberculosis ΔpanCDΔlysA,[1],No growth inhibition
same,Inhibition of hLpd,human Lpd (hLpd),did not inhibit
"COc1ccc(NC(=O)CN(C)S(=O)(=O)c2cc(Br)cnc2N)cc1 [SL827, 2-(2-amino-5-bromo-N-methylpyridine-3-sulfonamido)-N-(4-methoxyphenyl)acetamide]",Growth inhibition of M. bovis BCG,M. bovis BCG,No growth inhibition
same,Growth inhibition of M. tuberculosis ΔpanCDΔlysA,[1],No growth inhibition
same,"Changes in alanine, valine and leucine levels",M. tuberculosis H37Rv,no changes
same,Inhibition of hLpd,human Lpd (hLpd),did not inhibit
Cc1cc(NS(=O)(=O)c2ccc(N)cc2)no1 [Sulfamethoxazole],Growth inhibitory effect on Mtb,Mtb,little or no growth inhibitory effect
"COC(=O)[C@H]1[C@H]2C[C@@H]3c4[nH]c5cc(OC)ccc5c4CCN3C[C@H]2C[C@@H](OC(=O)c2cc(OC)c(OC)c(OC)c2)[C@@H]1OC [reserpine, reference compound]",Growth inhibitory effect on Mtb on its own,[1]; 25 μM,no growth inhibitory effect
Nc1ccc(S(N)(=O)=O)cc1 [sulfanilamide],Growth inhibitory effect on Mtb,Mtb,little or no growth inhibitory effect
"COc1ccc(CCN(C)CCCC(C#N)(c2ccc(OC)c(OC)c2)C(C)C)cc1OC (centres unmarked) [verapamil, reference compound]",Growth inhibitory effect on Mtb on its own,[1]; 50 μM,no growth inhibitory effect
